The subject of one experiment is P. aeruginosa CDC-0090. Kind of experiment: microbe, parasite or virus in culture. It counts as cell-based. The conditions noted are these: Pseudomonas aeruginosa, CDC0090, read-out: Minimum inhibitory concentration, P. aeruginosa CDC-0090.
The next experiment relates to A. baumannii ATCC 17978. Kind of experiment: microbe, parasite or virus in culture. It counts as cell-based. The settings on record: Acinetobacter baumannii.
Experiment [1] deals with T1, PBP3 from Acinetobacter baumannii (ATCC 19606) (Acinetobacter baumannii, UniProt A0ABX6CK25).
T1 sequence (A0ABX6CK25 64-610): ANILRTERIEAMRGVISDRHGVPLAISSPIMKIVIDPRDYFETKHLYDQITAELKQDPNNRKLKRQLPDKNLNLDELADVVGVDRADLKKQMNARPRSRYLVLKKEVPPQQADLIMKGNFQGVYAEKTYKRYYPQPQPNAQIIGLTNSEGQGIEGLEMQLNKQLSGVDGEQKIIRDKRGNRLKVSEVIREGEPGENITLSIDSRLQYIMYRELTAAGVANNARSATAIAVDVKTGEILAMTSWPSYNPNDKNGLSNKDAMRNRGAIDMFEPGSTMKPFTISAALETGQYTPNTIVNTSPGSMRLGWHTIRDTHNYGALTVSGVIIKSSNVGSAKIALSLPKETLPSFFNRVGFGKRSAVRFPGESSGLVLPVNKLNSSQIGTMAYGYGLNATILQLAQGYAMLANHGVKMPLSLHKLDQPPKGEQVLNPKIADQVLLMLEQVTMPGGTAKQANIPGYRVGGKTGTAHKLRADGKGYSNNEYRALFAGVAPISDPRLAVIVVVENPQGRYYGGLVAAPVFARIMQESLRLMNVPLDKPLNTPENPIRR
Kind of experiment: Bocillin-FL fluorescence polarization competition binding, A. baumannii PBP3. The conditions noted are these: fluorescence polarization competition binding assay using Bocillin-FL; read-out: A. baumannii PBP3 Potency. A digest of the protocol:
(§1)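 Purified PBP was preincubated with inhibitor (E. coli PBP3 1.5 μM, 30 min; P. aeruginosa PBP3 0.75 μM, A. baumannii PBP3 0.2 μM and PBP1a 1 μM, 15 min), then Bocillin-FL (0.1 μM; 0.05 μM for PBP1a) added and FP read up to 60 min. EC50 = 50% loss of bound probe.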
In general terms: In fluorescence polarisation assays a small probe gives low polarisation when free and higher when bound to something large.

For a further experiment, the system named is P. aeruginosa CDC-0054. Put plainly: microbe, parasite or virus in culture. It counts as cell-based. The conditions noted are these: Pseudomonas aeruginosa, CDC0054, read-out: Minimum inhibitory concentration, P. aeruginosa CDC-0054.
For a further experiment, the system named is P. aeruginosa CDC-0110. Kind of experiment: microbe, parasite or virus in culture. The conditions noted are these: Pseudomonas aeruginosa, CDC0110, read-out: Minimum inhibitory concentration, P. aeruginosa CDC-0110. It counts as cell-based.
Experiment [2] has as its system P. aeruginosa (ΔmexAB-oprM). Kind of experiment: Broth microdilution MIC in iron-depleted CAMHB (IDM). It counts as cell-based. The conditions noted are these: Pseudomonas aeruginosa; iron-depleted CAMHB (IDM); […]; read-out: Minimum inhibitory concentration, P. aeruginosa ΔmexAB-oprM.
Experiment [3] deals with B. thailandensis ATCC 700388. Put plainly: microbe, parasite or virus in culture. The settings on record: Burkholderia thailandensis, ATCC700388, read-out: Minimum inhibitory concentration (MIC), B. thailandensis ATCC 700388. It counts as cell-based.
The target of experiment [4] is T2, PBP3 from Pseudomonas aeruginosa (PAO1) (Pseudomonas aeruginosa, UniProt G3XD46).
T2 construct: made in house
Kind of experiment: Bocillin-FL fluorescence polarization competition binding, P. aeruginosa PBP3. The conditions noted are these: Binding affinity to P. aeruginosa PBP3; fluorescence polarization competition binding assay using Bocillin-FL; read-out: P. aeruginosa PBP3 Potency. The gist of the method:
as §1

The next experiment has as its system A. baumannii 1258916. Put plainly: microbe, parasite or virus in culture. It counts as cell-based, Acinetobacter baumannii.
A further experiment has as its system P. aeruginosa CDC-0095. Put plainly: microbe, parasite or virus in culture. The conditions noted are these: Pseudomonas aeruginosa, CDC0095, read-out: Minimum inhibitory concentration, P. aeruginosa CDC-0095. The class given is cell-based.
[5] abbreviates: ATCC17978, read-out: MIC, A. baumannii ATCC 17978.
The mark [6] stands for this setting: Acinetobacter baumannii, 1258916, read-out: MIC, A. baumannii 1258916.

≈ marks a conversion by molar mass, not a printed value. Where two headings read alike, the source gives them in different places. Some results are limits rather than exact numbers.

T2 sequence (G3XD46 whole entry): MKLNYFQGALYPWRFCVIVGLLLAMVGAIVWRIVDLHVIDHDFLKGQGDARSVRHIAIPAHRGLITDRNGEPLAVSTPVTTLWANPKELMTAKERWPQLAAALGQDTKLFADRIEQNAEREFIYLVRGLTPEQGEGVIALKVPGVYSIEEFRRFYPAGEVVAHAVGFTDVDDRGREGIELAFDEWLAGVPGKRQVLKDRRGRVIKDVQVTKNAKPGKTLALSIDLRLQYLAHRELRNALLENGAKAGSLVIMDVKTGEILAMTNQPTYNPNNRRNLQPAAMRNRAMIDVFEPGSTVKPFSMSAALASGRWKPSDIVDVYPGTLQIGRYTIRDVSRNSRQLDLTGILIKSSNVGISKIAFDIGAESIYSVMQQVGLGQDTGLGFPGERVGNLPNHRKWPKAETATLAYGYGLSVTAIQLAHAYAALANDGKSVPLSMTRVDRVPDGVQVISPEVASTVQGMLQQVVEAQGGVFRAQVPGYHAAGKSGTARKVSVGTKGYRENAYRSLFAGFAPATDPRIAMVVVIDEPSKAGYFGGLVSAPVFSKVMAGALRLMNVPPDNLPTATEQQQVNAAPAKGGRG

For `O=C(O)c1c(F)ccc2c1OB(O)[C@@H](NC(=O)C(NC(=O)N1CCN(C3CCN(C(=O)Nc4cc(O)ccc4Cl)CC3)C(=O)C1=O)c1cc(F)c(O)c(O)c1Cl)C2` (stereo partly drawn) [Example 483, (3R)-3-(2-(2-chloro-5-fluoro-3,4-dihydroxyphenyl)-2-(4-(1-((2-chloro-5-hydroxyphenyl)carbamoyl)piperidin-4-yl)-2,3-dioxopiperazine-1-carboxamido)acetamido)-7-fluoro-2-hydroxy-3,4-dihydro-2H-benzo[e][1,2]oxaborinine-8-carboxylic acid], the MIC with P. aeruginosa CDC-0090 is 2 to 4 µg/mL (≈ 2.39 to 4.79 µM); in the experiment on A. baumannii ATCC 17978 (setting [5]) it was less than 1 µg/mL; in the experiment with P. aeruginosa CDC-0054, 2 to 4 µg/mL (≈ 2.39 to 4.79 µM); in the experiment on P. aeruginosa CDC-0110 it was 2 to 4 µg/mL (≈ 2.39 to 4.79 µM); in [2], less than 1 µg/mL; in [3], 32 to 64 µg/mL (≈ 38.3 to 76.6 µM). Further, the MIC in the experiment on A. baumannii 1258916 (setting [6]) is less than 1 µg/mL; in the experiment with P. aeruginosa CDC-0095, 2 to 4 µg/mL (≈ 2.39 to 4.79 µM). The IC50 in experiment [1] and in [4] was less than 10 µM each time.
As to `O=C(O)c1c(F)ccc2c1OB(O)[C@@H](NC(=O)C(NC(=O)N1CCN(C3CCN(C(=O)Nc4cc(O)cc(Cl)c4)CC3)C(=O)C1=O)c1cc(F)c(O)c(O)c1Cl)C2` (stereo partly drawn) [Example 484, (3R)-3-(2-(2-chloro-5-fluoro-3,4-dihydroxyphenyl)-2-(4-(1-((3-chloro-5-hydroxyphenyl)carbamoyl)piperidin-4-yl)-2,3-dioxopiperazine-1-carboxamido)acetamido)-7-fluoro-2-hydroxy-3,4-dihydro-2H-benzo[e][1,2]oxaborinine-8-carboxylic acid], the MIC in the experiment on P. aeruginosa CDC-0090 was 2 to 4 µg/mL (≈ 2.39 to 4.79 µM); in the experiment on A. baumannii ATCC 17978 (setting [5]), less than 1 µg/mL; with P. aeruginosa CDC-0054, 2 to 4 µg/mL (≈ 2.39 to 4.79 µM); in the experiment on P. aeruginosa CDC-0110 it was 2 to 4 µg/mL (≈ 2.39 to 4.79 µM); in experiment [2], less than 1 µg/mL; in [3], 32 to 64 µg/mL (≈ 38.3 to 76.6 µM). Further, the MIC in the experiment with A. baumannii 1258916 (setting [6]) was less than 1 µg/mL; in the experiment on P. aeruginosa CDC-0095, 2 to 4 µg/mL (≈ 2.39 to 4.79 µM). Moreover, the IC50 in [1] and in experiment [4] was less than 10 µM each time.
Regarding `O=C(O)c1c(F)ccc2c1OB(O)[C@@H](NC(=O)C(NC(=O)N1CCN(C3CCN(S(=O)(=O)Cc4cccc(O)c4)CC3)C(=O)C1=O)c1cc(F)c(O)c(O)c1Cl)C2` (stereo partly drawn) [Example 485, (3R)-3-(2-(2-chloro-5-fluoro-3,4-dihydroxyphenyl)-2-(4-(1-((3-hydroxybenzyl)sulfonyl)piperidin-4-yl)-2,3-dioxopiperazine-1-carboxamido)acetamido)-7-fluoro-2-hydroxy-3,4-dihydro-2H-benzo[e][1,2]oxaborinine-8-carboxylic acid], the MIC with P. aeruginosa CDC-0090 is less than 1 µg/mL; in the experiment with A. baumannii ATCC 17978 (setting [5]), less than 1 µg/mL; in the experiment on P. aeruginosa CDC-0054, less than 1 µg/mL; with P. aeruginosa CDC-0110, less than 1 µg/mL; in experiment [2] it was less than 1 µg/mL; in [3], 2 to 4 µg/mL (≈ 2.39 to 4.78 µM). For the same compound, the MIC in the experiment on A. baumannii 1258916 (setting [6]) and in the experiment on P. aeruginosa CDC-0095 was less than 1 µg/mL throughout. The IC50 in [1] and in [4] was less than 10 µM each time.
`O=C(O)c1c(F)ccc2c1OB(O)[C@@H](NC(=O)C(NC(=O)N1CCN(C3CCN(C(=O)Nc4ccc(F)c(O)c4F)CC3)C(=O)C1=O)c1cc(F)c(O)c(O)c1Cl)C2` (stereo partly drawn) [Example 486, (3R)-3-(2-(2-chloro-5-fluoro-3,4-dihydroxyphenyl)-2-(4-(1-((2,4-difluoro-3-hydroxyphenyl)carbamoyl)piperidin-4-yl)-2,3-dioxopiperazine-1-carboxamido)acetamido)-7-fluoro-2-hydroxy-3,4-dihydro-2H-benzo[e][1,2]oxaborinine-8-carboxylic acid]: the MIC with P. aeruginosa CDC-0090 was 2 to 4 µg/mL (≈ 2.39 to 4.78 µM); in the experiment with A. baumannii ATCC 17978 (ATCC17978, read-out: Minimum inhibitory concentration (MIC), A. baumannii ATCC 17978), less than 1 µg/mL; in the experiment on P. aeruginosa CDC-0054, less than 1 µg/mL; in the experiment with P. aeruginosa CDC-0110 it was less than 1 µg/mL; in experiment [2], less than 1 µg/mL; in [3], 2 to 4 µg/mL (≈ 2.39 to 4.78 µM). Moreover, the MIC in the experiment with A. baumannii 1258916 (Acinetobacter baumannii, 1258916, read-out: Minimum inhibitory concentration (MIC), A. baumannii 1258916) was less than 1 µg/mL; with P. aeruginosa CDC-0095, less than 1 µg/mL. Besides, the IC50 in experiment [1] and in experiment [4] was less than 10 µM in each case.

Values taken from patent US20240270762A1, “PENICILLIN-BINDING PROTEIN INHIBITORS” (priority 2021, published 2024).
